According to ChEMBL document CHEMBL4330185, “Computer-Assisted Discovery and Structural Optimization of a Novel Retinoid X Receptor Agonist Chemotype” (ACS Med Chem Lett, 2019):
Values after ≈ are worked out from the molar mass of the structure shown. Active and inactive are the calls of the source. The rule behind the calls is not given here.

Assays:
[1] = biological target: T1, Retinoic acid receptor RXR-alpha (Homo sapiens, UniProt P19793); test: Agonist activity at human Gal4-DBD fused RXRalpha LBD expressed in HEK293T cells after 12 to 14 hrs by luciferase reporter gene assay; assay type: cell-based
T1 sequence (P19793 whole entry): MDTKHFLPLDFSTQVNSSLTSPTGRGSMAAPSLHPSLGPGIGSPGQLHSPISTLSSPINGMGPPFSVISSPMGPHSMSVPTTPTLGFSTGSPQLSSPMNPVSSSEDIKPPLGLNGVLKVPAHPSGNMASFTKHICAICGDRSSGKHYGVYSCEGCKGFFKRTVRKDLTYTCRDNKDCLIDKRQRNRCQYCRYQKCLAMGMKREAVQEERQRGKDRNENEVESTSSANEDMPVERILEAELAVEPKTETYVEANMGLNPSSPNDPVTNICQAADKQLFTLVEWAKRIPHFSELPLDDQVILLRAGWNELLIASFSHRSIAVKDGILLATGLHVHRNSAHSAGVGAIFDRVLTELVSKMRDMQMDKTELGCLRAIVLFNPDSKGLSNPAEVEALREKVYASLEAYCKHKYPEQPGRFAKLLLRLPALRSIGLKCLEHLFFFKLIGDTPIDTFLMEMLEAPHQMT

[2] = biological target: T2, Retinoic acid receptor RXR-beta (Homo sapiens, UniProt P28702); test: Agonist activity at human Gal4-DBD fused RXRbeta LBD expressed in HEK293T cells after 12 to 14 hrs by luciferase reporter gene assay; assay type: cell-based
T2 sequence (P28702 whole entry): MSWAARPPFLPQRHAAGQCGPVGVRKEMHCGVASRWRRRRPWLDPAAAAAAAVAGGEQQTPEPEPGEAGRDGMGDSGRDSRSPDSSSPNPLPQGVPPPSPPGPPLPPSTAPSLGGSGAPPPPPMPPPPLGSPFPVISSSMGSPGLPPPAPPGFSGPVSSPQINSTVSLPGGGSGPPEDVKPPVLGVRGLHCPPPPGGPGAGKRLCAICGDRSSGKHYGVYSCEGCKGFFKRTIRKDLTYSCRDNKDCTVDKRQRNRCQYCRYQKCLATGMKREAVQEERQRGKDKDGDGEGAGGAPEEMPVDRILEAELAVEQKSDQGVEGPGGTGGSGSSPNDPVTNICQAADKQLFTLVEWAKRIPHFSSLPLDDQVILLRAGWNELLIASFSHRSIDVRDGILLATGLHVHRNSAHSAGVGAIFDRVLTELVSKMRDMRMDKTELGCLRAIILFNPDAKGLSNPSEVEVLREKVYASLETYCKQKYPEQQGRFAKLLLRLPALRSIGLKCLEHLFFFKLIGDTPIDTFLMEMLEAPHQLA

[3] = biological target: T3, Retinoic acid receptor RXR-gamma (Homo sapiens, UniProt P48443); test: Agonist activity at human Gal4-DBD fused RXRgamma LBD expressed in HEK293T cells after 12 to 14 hrs by luciferase reporter gene assay; assay type: cell-based
T3 sequence (P48443 whole entry): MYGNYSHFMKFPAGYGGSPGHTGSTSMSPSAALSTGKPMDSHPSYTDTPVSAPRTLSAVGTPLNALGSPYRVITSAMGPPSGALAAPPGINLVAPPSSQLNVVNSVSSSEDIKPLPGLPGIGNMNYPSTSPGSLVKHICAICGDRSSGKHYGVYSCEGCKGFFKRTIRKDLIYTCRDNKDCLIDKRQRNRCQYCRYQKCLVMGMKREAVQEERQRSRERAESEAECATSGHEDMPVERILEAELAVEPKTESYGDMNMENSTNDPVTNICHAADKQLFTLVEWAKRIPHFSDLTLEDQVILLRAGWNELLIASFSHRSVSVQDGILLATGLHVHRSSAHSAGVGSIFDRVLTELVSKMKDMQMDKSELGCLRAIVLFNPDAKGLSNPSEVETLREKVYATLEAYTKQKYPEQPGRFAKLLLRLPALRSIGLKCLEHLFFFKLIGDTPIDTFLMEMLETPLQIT

[4] = biological target: T4, Retinoic acid receptor RXR-alpha (Homo sapiens) (UniProt P19793); test: Agonist activity at human Gal4-DBD fused RXRalpha LBD expressed in HEK293T cells after 12 to 14 hrs by luciferase reporter gene assay relative to bexarotene; assay type: cell-based
T4 sequence (whole entry): T1 sequence (P19793 whole entry)

[5] = biological target: T5, Retinoic acid receptor RXR-beta (Homo sapiens) (UniProt P28702); test: Agonist activity at human Gal4-DBD fused RXRbeta LBD expressed in HEK293T cells after 12 to 14 hrs by luciferase reporter gene assay relative to bexarotene; assay type: cell-based
T5 sequence (whole entry): T2 sequence (P28702 whole entry)

[6] = biological target: T6, Retinoic acid receptor RXR-gamma (Homo sapiens) (UniProt P48443); test: Agonist activity at human Gal4-DBD fused RXRgamma LBD expressed in HEK293T cells after 12 to 14 hrs by luciferase reporter gene assay relative to bexarotene; assay type: cell-based
T6 sequence (whole entry): T3 sequence (P48443 whole entry)

[7] = biological target: T6, Retinoic acid receptor RXR-gamma (Homo sapiens); test: Agonist activity at human Gal4-DBD fused RXRgamma LBD expressed in HEK293T cells at 30 uM after 12 to 14 hrs by luciferase reporter gene assay; assay type: cell-based
[8] = biological target: T4, Retinoic acid receptor RXR-alpha (Homo sapiens); test: Agonist activity at human Gal4-DBD fused RXRalpha LBD expressed in HEK293T cells at 10 uM after 12 to 14 hrs by luciferase reporter gene assay; assay type: cell-based
HepG2 = test: Cytotoxicity against human HepG2 cells up to 100 uM after 48 hrs by WST1 assay; assay type: cell-based; conditions: hepg2, 48 h
[9] = Aqueous solubility of the compound after 24 hrs by HPLC analysis; assay type: physicochemical; conditions: water
[10] = Lipophilicity, log P of the compound by HPLC analysis; assay type: physicochemical

SMILES	EC50 ([1]; read-out: EC50) [µM]	EC50 ([2]; read-out: EC50) [µM]	EC50 ([3]; read-out: EC50) [µM]	Emax [4] [%]	Emax [5] [%]	Emax [6] [%]	also measured
O=C(O)Cc1ccc(COc2ccc3c(c2)CCC3)cc1	13	18	22	47	9.9	8.8	–
O=C(O)c1ccc(CNc2ccc3c(c2)CCC3)cc1	> 30	> 30	> 30	–	–	–	–
O=C(O)CCc1ccc(COc2ccc3c(c2)CCC3)cc1	6.7	10	21	28	29	19	–
O=C(O)c1ccc(COc2ccc(Br)cc2)cc1	40	48	> 30	21	36	–	–
O=C(O)CCCc1ccc(COc2ccc3c(c2)CCC3)cc1	–	–	–	–	–	–	EC50 [1]: Nd(Toxic); EC50 [2]: Nd(Toxic); EC50 [3]: Nd(Toxic)
O=C(O)c1ccc(OCc2ccccc2-c2ccccc2)cc1	> 30	> 30	–	–	–	–	EC50 [3]: Nd(Toxic)
CC(C)(C)c1ccc(OCc2ccc(C(=O)O)cc2)c(-c2ccccc2)c1	> 30	> 30	> 30	–	–	–	–
O=C(O)c1ccc(COc2ccc(I)cc2)cc1	24	29	> 30	19	25	–	–
Cc1ccccc1OCc1ccc(C(=O)O)cc1	5	8.6	19	24	27	19	–
O=C(O)c1ccc(COc2ccccc2F)cc1	> 30	> 30	> 30	–	–	–	–
O=C(O)c1ccc(COc2ccc(Cl)cc2)cc1	> 30	> 30	> 30	–	–	–	–
O=C(O)c1ccc(COc2cccc(Cl)c2)cc1	17	20	44	54	26	9.3	–
O=C(O)c1ccc(COc2ccccc2OC(F)(F)F)cc1	1.1	1.9	4.2	26	18	25	–
Cc1ccc(OCc2ccc(C(=O)O)cc2)c(-c2ccccc2)c1	> 30	> 30	–	–	–	–	EC50 [3]: Nd(Toxic)
CC(C)c1ccc(OCc2ccc(C(=O)O)cc2)cc1	16	16	–	11	9.5	–	Activity [7]: inactive
CC(C)(C)c1ccc(OCc2ccc(C(=O)O)cc2)c(C(C)(C)C)c1	–	–	–	–	–	–	EC50 [1]: Nd(Toxic); EC50 [2]: Nd(Toxic); EC50 [3]: Nd(Toxic)

SMILES	EC50 ([1]; read-out: EC50) [µM]	EC50 ([2]; read-out: EC50) [µM]	EC50 ([3]; read-out: EC50) [µM]	Emax [4] [%]	Emax [5] [%]	Emax [6] [%]	also measured
O=C(O)c1ccc(COc2ccccc2C(F)(F)F)cc1	1.1	2.1	10	22	22	52	–
COc1ccccc1OCc1ccc(C(=O)O)cc1	29	> 30	> 30	21	–	–	–
CC(C)(C)c1ccc(OCc2ccc(C(=O)O)cc2)cc1	7.8	8.9	> 30	16	15	–	Activity [8]: Active
O=C(O)c1ccc(COc2cc3c(cc2-c2ccccc2)CCC3)cc1	> 30	> 30	> 30	–	–	–	–
CC(C)(C)c1ccccc1OCc1ccc(C(=O)O)cc1	0.16	0.37	1.1	11	12	21	–
C=C(c1ccc(C(=O)O)cc1)c1cc2c(cc1C)C(C)(C)CCC2(C)C [BEXAROTENE]	–	–	–	–	–	–	Activity (HepG2): Non-Toxic; solubility at 24 h [9]: 0.31 µg/mL (≈ 0.89 µM); logP [10]: 5.2
O=C(O)c1ccc(COc2ccccc2)cc1	> 30	> 30	> 30	–	–	–	–
O=C(O)c1ccc(OCc2cccc(Cl)c2)cc1	27	28	29	27	24	29	–
CCc1ccc(OCc2ccc(C(=O)O)cc2)cc1	28	35	–	11	7.4	–	Activity [7]: inactive
CN(Cc1ccc(C(=O)O)cc1)c1ccc2c(c1)CCC2	10	9.9	30	22	15	8.5	–
O=C(O)c1ccc(OCc2ccc3c(c2)CCC3)cc1	> 30	21	> 30	–	25	–	–
CC(C)(C)c1ccc(OCc2ccc(C(=O)O)cc2)c(Cl)c1	4.2	5.3	4	37	36	14	–
O=C(O)c1ccc(COc2ccccc2Cl)cc1	9.9	8.3	> 30	58	31	–	–
O=C(O)c1ccccc1COc1ccc2c(c1)CCC2	> 30	> 30	> 30	–	–	–	–
O=C(O)c1ccc(COc2ccc(C(F)(F)F)cc2C(F)(F)F)cc1	6	4.3	11	118	66	49	–
